Test results from ChEMBL document CHEMBL5096241, “Discovery of 3-Aminopyrazole Derivatives as New Potent and Orally Bioavailable AXL Inhibitors” (J Med Chem, 2022).

Key:
4T1 [1] = test: Inhibition of ERK phosphorylation in mouse 4T1 cells measured after 6 hrs by Western blot analysis; type: cell-based; conditions: dose 0.8-500 nM, DDE = dose-dependent effect
[2] = Observed MRTinfinity in Sprague-Dawley rat at 25 mg/kg, po measured for 96 hrs by LC-MS analysis; type: ADME, organism-based; conditions: in vivo
[3] = molecular target: Tyrosine-protein kinase Mer (Homo sapiens, UniProt Q12866); test: Binding affinity to MERTK (unknown origin) assessed as dissociation constant by competition binding assay
[4] = Half life in Sprague-Dawley rat at 25 mg/kg, po measured for 96 hrs by LC-MS analysis; type: ADME, organism-based; conditions: in vivo
[5] = molecular target: Vascular endothelial growth factor receptor 1 (Homo sapiens, UniProt P17948); test: Binding affinity to FLT1 (unknown origin) assessed as dissociation constant by competition binding assay
[6] = Observed AUCinfinity in Sprague-Dawley rat at 25 mg/kg, po measured for 96 hrs by LC-MS analysis; type: ADME, organism-based; set-up: dose 25 mg/kg, time 96 hrs, route po; conditions: in vivo
[7] = molecular target: T1, Platelet-derived growth factor receptor beta (Homo sapiens, UniProt P09619); test: Inhibition of PDGFRB (unknown origin)
4T1 [8] = test: In vivo inhibition of AXL phosphorylation in BALB/c mouse implanted with mouse 4T1 cells administered orally once a day for 14 days; type: functional, organism-based; conditions: dose 50-100 mg/kg, route po, time 14.0 day, DDE = dose-dependent effect
[9] = molecular target: Serine/threonine-protein kinase AKT (Homo sapiens) (UniProt P31751+Q9Y243+P31749); test: Inhibition of AKT phosphorylation at S473 residue in human MDA-MB-231 cells measured after 6 hrs by Western blot analysis; type: cell-based; conditions: dose 0.8-500 nM, DDE = dose-dependent effect
[10] = Inhibition of TGF-beta induced cell invasion in human MDA-MB-231 cells at 0.33 uM incubated for 24 hrs by crystal violet staining based transwell assay relative to control; type: functional
[11] = Cmax in Sprague-Dawley rat at 5 mg/kg, iv measured for 96 hrs by LC-MS analysis; type: ADME, organism-based; set-up: time 96 hrs, dose 5 mg/kg, route iv; conditions: in vivo
[12] = molecular target: Proto-oncogene tyrosine-protein kinase receptor Ret (Homo sapiens, UniProt P07949); test: Binding affinity to RET (unknown origin) assessed as dissociation constant by competition binding assay
[13] = Inhibition of TGF-beta induced cell invasion in human MDA-MB-231 cells at 3 uM incubated for 24 hrs by crystal violet staining based transwell assay relative to control; type: functional
4T1 [14] = test: Antitumor activity against metastatic mouse 4T1 cells implanted in BALB/c mouse assessed as reduction in number of liver metastases at 100 mg/kg, po qd administered for 14 consecutive days by H & E staining based microscopic analysis (reference value: 24.7 +/- 6.7); type: functional; conditions: time 14 day
[15] = molecular target: Receptor-type tyrosine-protein kinase FLT3 (Homo sapiens, UniProt P36888); test: Binding affinity to FLT3 (unknown origin) assessed as dissociation constant by competition binding assay
[16] = Half life in Sprague-Dawley rat at 5 mg/kg, iv measured for 96 hrs by LC-MS analysis; type: ADME, organism-based; conditions: in vivo
4T1 [17] = test: Antitumor activity against metastatic mouse 4T1 cells implanted in BALB/c mouse assessed as tumor growth inhibition at 50 mg/kg, po qd administered for 14 consecutive days and measured every 2 days by electronic caliper method relative to control; type: functional; conditions: 4T1, 336 h, time 14 day, read-out: TGI
[18] = molecular target: Serine/threonine-protein kinase 10 (Homo sapiens, UniProt O94804); test: Binding affinity to LOK (unknown origin) assessed as dissociation constant by competition binding assay
[19] = molecular target: T2, Mast/stem cell growth factor receptor Kit (Homo sapiens, UniProt P10721); test: Inhibition of KIT (unknown origin)
[20] = molecular target: T1, Platelet-derived growth factor receptor beta; test: Binding affinity to PDGFRB (unknown origin) assessed as dissociation constant by competition binding assay
[21] = AUClast in Sprague-Dawley rat at 25 mg/kg, po measured for 96 hrs by LC-MS analysis; type: ADME, organism-based; set-up: time 96 hrs, dose 25 mg/kg, route po; conditions: in vivo
[22] = Inhibition of TGF-beta induced cell invasion in human MDA-MB-231 cells at 1 uM incubated for 24 hrs by crystal violet staining based transwell assay relative to control; type: functional
[23] = molecular target: Hepatocyte growth factor receptor (Homo sapiens, UniProt P08581); test: Binding affinity to MET (unknown origin) assessed as dissociation constant by competition binding assay
[24] = Tmax in Sprague-Dawley rat at 25 mg/kg, po measured for 96 hrs by LC-MS analysis; type: ADME, organism-based; conditions: in vivo
[25] = molecular target: T2, Mast/stem cell growth factor receptor Kit; test: Binding affinity to KIT (unknown origin) assessed as dissociation constant by competition binding assay
MDA-MB-231 = test: Inhibition of TGF-beta induced epithelial mesenchymal transition process in human metastatic MDA-MB-231 cells assessed as restoration of N-cadherin expression incubated for 3 days by Western blot analysis; type: functional, cell-based; conditions: dose 0.11-3 µM, time 3.0 day, DDE = dose-dependent effect
[26] = molecular target: Macrophage colony-stimulating factor 1 receptor (Homo sapiens, UniProt P07333); test: Binding affinity to CSF1R (unknown origin) assessed as dissociation constant by competition binding assay
[27] = molecular target: Epithelial discoidin domain-containing receptor 1 (Homo sapiens, UniProt Q08345); test: Binding affinity to DDR1 (unknown origin) assessed as dissociation constant by competition binding assay
Angiopoietin-1 receptor = Angiopoietin-1 receptor (Homo sapiens, UniProt Q02763); test: Binding affinity to TIE2 (unknown origin) assessed as dissociation constant by competition binding assay
[28] = Oral bioavailability in Sprague-Dawley rat at 25 mg/kg measured for 96 hrs by LC-MS analysis; type: ADME, organism-based; conditions: in vivo
[29] = Observed AUCinfinity in Sprague-Dawley rat at 5 mg/kg, iv measured for 96 hrs by LC-MS analysis; type: ADME, organism-based; set-up: dose 5 mg/kg, time 96 hrs, route iv; conditions: in vivo
[30] = molecular target: Tyrosine-protein kinase receptor UFO (Mus musculus) (UniProt Q00993); test: Inhibition of AXL phosphorylation at Tyr702 residue in mouse 4T1 cells measured after 6 hrs by Western blot analysis; type: cell-based; conditions: dose 0.8-500 nM, DDE = dose-dependent effect
[31] = Toxicity in BALB/c mouse implanted with mouse 4T1 cells assessed as body weight loss at 50 to 100 mg/kg, po qd administered for 14 consecutive days and measured every 2 days; type: organism-based; conditions: in vivo, 336 h, dose 50-100 mg/kg, time 14 day
[32] = Cmax in Sprague-Dawley rat at 25 mg/kg, po measured for 96 hrs by LC-MS analysis; type: ADME, organism-based; set-up: dose 25 mg/kg, time 96 hrs, route po; conditions: in vivo
BaF3 = test: Antiproliferative activity against mouse BaF3 cells transfected with TEL-AXL assessed as inhibition of cell growth incubated for 72 hrs; type: functional, cell-based; conditions: BaF3, 72 h
[33] = Toxicity in BALB/c mouse implanted with mouse 4T1 cells assessed as splenomegaly at 50 to 100 mg/kg, po qd administered for 14 consecutive days; type: organism-based; conditions: in vivo, 336 h, dose 50-100 mg/kg, time 14 day
4T1 [34] = test: Antitumor activity against metastatic mouse 4T1 cells implanted in BALB/c mouse assessed as reduction in size of liver metastases administered orally once daily for 14 consecutive days by H & E staining based microscopic analysis; type: functional; conditions: dose 50-100 mg/kg, route po, time 14.0 day, DDE = dose-dependent effect
[35] = AUClast in Sprague-Dawley rat at 5 mg/kg, iv measured for 96 hrs by LC-MS analysis; type: ADME, organism-based; set-up: time 96 hrs, dose 5 mg/kg, route iv; conditions: in vivo
4T1 [36] = test: Antitumor activity against metastatic mouse 4T1 cells implanted in BALB/c mouse assessed as tumor growth inhibition at 100 mg/kg, po qd administered for 14 consecutive days and measured every 2 days by electronic caliper method relative to control; type: functional; conditions: 4T1, 336 h, time 14 day, read-out: TGI

T2 sequence (P10721 whole entry): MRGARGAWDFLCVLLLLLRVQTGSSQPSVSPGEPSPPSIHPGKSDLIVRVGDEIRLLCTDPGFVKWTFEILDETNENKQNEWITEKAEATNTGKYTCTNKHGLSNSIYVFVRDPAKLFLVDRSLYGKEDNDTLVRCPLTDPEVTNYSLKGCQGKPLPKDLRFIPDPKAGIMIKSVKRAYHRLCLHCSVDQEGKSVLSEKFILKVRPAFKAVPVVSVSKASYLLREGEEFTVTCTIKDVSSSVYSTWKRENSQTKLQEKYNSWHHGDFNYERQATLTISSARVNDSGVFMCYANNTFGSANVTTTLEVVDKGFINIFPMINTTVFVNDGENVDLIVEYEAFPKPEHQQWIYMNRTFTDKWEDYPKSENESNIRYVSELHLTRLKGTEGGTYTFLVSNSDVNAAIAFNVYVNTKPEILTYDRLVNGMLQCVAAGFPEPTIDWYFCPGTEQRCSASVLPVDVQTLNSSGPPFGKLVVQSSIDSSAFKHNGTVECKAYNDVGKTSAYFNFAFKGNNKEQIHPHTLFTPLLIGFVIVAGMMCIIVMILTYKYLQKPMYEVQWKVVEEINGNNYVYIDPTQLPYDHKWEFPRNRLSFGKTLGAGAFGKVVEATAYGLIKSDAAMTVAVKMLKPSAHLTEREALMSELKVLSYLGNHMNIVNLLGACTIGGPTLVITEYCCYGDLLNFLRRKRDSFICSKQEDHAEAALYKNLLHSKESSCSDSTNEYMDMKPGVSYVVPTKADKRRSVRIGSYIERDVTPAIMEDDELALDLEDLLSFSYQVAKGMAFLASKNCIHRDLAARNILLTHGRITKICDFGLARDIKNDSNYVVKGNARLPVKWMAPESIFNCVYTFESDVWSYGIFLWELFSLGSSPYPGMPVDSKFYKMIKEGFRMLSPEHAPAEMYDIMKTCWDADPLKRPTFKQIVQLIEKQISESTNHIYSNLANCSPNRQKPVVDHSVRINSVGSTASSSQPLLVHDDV
T1 sequence (P09619 whole entry): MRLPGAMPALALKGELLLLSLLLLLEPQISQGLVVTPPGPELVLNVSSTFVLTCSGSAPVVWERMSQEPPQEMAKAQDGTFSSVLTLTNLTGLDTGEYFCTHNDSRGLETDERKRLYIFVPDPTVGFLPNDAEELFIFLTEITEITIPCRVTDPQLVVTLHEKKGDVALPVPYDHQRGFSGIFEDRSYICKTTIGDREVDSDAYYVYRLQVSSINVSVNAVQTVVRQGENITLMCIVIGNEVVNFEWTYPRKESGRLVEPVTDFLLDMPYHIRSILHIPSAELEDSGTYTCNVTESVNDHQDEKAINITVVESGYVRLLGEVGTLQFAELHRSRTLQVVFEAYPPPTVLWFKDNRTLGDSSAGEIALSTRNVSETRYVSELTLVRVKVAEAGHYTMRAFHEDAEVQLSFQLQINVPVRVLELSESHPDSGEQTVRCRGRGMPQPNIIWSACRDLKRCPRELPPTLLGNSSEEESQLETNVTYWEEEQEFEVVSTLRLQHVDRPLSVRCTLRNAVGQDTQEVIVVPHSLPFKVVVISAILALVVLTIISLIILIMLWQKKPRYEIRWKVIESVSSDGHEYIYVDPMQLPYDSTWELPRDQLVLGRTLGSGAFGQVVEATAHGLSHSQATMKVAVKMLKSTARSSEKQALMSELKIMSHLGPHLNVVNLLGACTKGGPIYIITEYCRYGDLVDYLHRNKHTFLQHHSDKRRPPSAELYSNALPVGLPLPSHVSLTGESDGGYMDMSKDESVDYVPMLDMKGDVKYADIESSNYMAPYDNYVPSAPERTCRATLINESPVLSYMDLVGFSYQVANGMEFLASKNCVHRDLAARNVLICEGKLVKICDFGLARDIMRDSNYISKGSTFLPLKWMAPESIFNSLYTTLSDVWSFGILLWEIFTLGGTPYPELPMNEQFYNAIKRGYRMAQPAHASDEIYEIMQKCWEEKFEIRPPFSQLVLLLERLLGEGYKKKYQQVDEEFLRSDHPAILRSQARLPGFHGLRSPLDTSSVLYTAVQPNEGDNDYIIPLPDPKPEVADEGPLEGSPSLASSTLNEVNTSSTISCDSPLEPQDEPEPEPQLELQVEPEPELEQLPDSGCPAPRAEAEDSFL
Chain of Receptor-type tyrosine-protein kinase FLT3 (P36888 whole entry): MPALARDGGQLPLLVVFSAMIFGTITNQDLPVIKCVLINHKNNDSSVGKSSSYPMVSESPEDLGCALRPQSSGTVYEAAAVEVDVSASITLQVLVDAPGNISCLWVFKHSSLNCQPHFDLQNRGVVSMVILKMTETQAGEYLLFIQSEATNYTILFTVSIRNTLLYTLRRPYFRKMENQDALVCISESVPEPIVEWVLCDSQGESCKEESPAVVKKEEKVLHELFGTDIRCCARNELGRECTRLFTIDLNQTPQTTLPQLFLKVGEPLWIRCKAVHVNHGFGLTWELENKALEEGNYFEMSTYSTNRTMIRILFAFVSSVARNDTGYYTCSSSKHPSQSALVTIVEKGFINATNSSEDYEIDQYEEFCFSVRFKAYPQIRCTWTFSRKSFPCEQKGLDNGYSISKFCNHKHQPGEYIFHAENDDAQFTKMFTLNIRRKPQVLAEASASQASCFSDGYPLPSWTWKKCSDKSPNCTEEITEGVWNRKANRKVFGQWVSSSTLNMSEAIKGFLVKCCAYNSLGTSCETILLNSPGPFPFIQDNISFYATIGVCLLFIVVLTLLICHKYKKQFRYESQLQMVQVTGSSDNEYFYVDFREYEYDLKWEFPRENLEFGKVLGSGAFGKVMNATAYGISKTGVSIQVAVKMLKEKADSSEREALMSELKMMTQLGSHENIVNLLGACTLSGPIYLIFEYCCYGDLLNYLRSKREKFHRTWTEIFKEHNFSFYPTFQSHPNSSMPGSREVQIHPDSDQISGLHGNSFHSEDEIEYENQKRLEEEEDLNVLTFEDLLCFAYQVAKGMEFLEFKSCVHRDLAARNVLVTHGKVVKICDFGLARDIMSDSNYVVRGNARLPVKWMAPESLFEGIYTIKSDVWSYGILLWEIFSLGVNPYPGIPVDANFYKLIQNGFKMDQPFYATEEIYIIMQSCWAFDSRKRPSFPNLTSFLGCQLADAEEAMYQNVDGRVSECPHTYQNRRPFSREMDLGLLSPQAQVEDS
Chain of Serine/threonine-protein kinase 10 (O94804 whole entry): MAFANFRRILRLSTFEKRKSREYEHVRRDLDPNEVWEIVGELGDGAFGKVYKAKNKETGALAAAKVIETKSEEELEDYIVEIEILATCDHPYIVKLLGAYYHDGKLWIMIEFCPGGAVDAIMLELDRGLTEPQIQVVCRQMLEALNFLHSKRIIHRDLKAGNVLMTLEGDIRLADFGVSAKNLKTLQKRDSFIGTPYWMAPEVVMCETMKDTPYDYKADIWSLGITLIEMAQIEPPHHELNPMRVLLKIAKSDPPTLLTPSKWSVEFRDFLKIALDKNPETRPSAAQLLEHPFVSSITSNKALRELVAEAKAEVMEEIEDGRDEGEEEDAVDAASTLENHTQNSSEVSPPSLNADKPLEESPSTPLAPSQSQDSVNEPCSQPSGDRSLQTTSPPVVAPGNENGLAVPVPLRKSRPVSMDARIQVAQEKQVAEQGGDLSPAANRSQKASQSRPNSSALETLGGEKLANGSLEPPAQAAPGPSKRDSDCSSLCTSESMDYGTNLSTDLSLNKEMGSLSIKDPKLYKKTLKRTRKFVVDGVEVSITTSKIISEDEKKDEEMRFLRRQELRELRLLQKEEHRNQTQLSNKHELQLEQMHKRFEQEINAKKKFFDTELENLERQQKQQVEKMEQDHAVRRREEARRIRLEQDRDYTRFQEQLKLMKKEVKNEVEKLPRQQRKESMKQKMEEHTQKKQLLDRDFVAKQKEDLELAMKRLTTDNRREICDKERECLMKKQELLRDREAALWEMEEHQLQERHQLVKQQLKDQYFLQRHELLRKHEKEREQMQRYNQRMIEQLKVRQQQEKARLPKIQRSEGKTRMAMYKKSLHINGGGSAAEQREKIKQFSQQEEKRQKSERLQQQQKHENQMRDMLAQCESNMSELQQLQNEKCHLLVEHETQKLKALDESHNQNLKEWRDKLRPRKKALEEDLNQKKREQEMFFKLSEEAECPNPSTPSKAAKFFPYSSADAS
Chain of Epithelial discoidin domain-containing receptor 1 (Q08345 whole entry, the tested form may be a part): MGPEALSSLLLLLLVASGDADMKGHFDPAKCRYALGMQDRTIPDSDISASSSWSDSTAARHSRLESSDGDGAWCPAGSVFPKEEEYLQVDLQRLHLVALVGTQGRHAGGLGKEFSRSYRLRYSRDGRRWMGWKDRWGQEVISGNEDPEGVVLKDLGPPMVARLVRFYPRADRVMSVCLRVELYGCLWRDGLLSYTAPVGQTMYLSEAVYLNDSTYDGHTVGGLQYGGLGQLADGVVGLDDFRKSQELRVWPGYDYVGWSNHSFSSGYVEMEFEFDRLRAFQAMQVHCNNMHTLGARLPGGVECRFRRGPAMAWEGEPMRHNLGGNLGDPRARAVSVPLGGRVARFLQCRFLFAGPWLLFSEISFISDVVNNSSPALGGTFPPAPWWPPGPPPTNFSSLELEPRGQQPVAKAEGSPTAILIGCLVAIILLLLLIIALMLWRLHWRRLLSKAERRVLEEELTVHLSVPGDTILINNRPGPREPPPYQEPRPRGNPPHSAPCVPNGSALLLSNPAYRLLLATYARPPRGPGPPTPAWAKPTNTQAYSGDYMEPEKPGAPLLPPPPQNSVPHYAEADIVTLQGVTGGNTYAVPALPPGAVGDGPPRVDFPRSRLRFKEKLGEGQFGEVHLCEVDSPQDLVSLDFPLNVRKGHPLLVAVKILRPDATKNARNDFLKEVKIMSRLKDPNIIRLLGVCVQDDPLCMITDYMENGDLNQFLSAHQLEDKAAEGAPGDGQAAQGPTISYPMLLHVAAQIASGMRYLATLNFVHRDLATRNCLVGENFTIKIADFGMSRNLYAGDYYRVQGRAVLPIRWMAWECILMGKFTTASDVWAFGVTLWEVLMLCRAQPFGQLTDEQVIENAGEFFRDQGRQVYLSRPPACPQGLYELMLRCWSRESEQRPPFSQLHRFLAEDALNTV

**Q.** With COc1cc2c(Oc3ccc(Nc4nn(C)cc4C(=O)NC4CCCCC4)cc3F)ccnc2cc1OCCCN1CCOCC1 as the molecule, how does the inhibition (4T1 [1]) read?
**A.** Dde

**Q.** What about the MRT inf [2] of the same molecule?
**A.** 6.55 h

**Q.** What about the Kd [3] of the same molecule?
**A.** 560 nM

**Q.** And the half-life [4]?
**A.** 4.22 h

**Q.** And the Kd [5]?
**A.** 14 nM

**Q.** What about the AUC(0-inf) [6] of the same molecule?
**A.** 8630 ng·h/mL

**Q.** And the IC50 [7]?
**A.** > 10000 nM

**Q.** And the inhibition (4T1 [8])?
**A.** Dde

**Q.** And the inhibition [9]?
**A.** Dde

**Q.** And the inhibition at 0.33 µM [10]?
**A.** 34.8%

**Q.** What about the Cmax [11] of the same molecule?
**A.** 12300 ng/mL

**Q.** What about the Kd [12] of the same molecule?
**A.** 600 nM

**Q.** And the inhibition at 3 µM [13]?
**A.** 70.4%

**Q.** What about the Activity (4T1 [14]) of the same molecule?
**A.** 2.8

**Q.** And the Kd [15]?
**A.** 2.5 nM

**Q.** And the half-life [16]?
**A.** 3.31 h

**Q.** And the inhibition in vivo at 50 mg/kg (4T1 [17])?
**A.** 78%

**Q.** And the Kd [18]?
**A.** 880 nM

**Q.** What about the IC50 [19] of the same molecule?
**A.** 151 nM

**Q.** What about the Kd [20] of the same molecule?
**A.** 2.3 nM

**Q.** What about the AUC(0-t) at 96 h [21] of the same molecule?
**A.** 8410 ng·h/mL

**Q.** And the inhibition at 1 µM [22]?
**A.** 56.5%

**Q.** And the Kd [23]?
**A.** > 1000 nM

**Q.** What about the Tmax [24] of the same molecule?
**A.** 3 h

**Q.** And the Kd [25]?
**A.** 2.6 nM

**Q.** And the inhibition (MDA-MB-231)?
**A.** Dde

**Q.** And the Kd [26]?
**A.** 29 nM

**Q.** What about the Kd [27] of the same molecule?
**A.** > 1000 nM

**Q.** What about the Kd (Angiopoietin-1 receptor) of the same molecule?
**A.** 950 nM

**Q.** What about the bioavailability [28] of the same molecule?
**A.** 14.4%

**Q.** And the AUC(0-inf) [29]?
**A.** 11700 ng·h/mL

**Q.** What about the inhibition [30] of the same molecule?
**A.** Dde

**Q.** What about the Activity [31] of the same molecule?
**A.** Non-Toxic

**Q.** And the Cmax [32]?
**A.** 888 ng/mL

**Q.** What about the IC50 (BaF3) of the same molecule?
**A.** 4.7 nM

**Q.** What about the Activity [33] of the same molecule?
**A.** Non-Toxic

**Q.** And the Activity (4T1 [34])?
**A.** Dde

**Q.** What about the AUC(0-t) at 96 h [35] of the same molecule?
**A.** 11700 ng·h/mL

**Q.** And the inhibition in vivo at 100 mg/kg (4T1 [36])?
**A.** 95.9%
